Experimental data as given in patent US7183061B2, “Method of expressing Heliothis ecdysone receptor fusion protein” (Syngenta Limited, priority 1996, dated 2007).

What was measured:
[1] = tested on: glucocorticoid receptor transactivating and DNA binding domains fused to the ecdysone receptor hinge and ligand binding domains; details: mammalian cells; cited from earlier work
[2] = target: T1, glucocorticoid/Drosophila ecdysone chimeric receptor (UniProt P04150+P34021); experiment: Maize protoplast GUS reporter assay with pMF6GREcRS and p221.9GRE6; type: cell-based; details: maize protoplasts, reporter plus effector, concentration not given
T1 construct: expressed in transfected cells; host or cells: maize suspension-culture protoplasts
T1 sequence (P04150+P34021 with tags, fused parts or gaps): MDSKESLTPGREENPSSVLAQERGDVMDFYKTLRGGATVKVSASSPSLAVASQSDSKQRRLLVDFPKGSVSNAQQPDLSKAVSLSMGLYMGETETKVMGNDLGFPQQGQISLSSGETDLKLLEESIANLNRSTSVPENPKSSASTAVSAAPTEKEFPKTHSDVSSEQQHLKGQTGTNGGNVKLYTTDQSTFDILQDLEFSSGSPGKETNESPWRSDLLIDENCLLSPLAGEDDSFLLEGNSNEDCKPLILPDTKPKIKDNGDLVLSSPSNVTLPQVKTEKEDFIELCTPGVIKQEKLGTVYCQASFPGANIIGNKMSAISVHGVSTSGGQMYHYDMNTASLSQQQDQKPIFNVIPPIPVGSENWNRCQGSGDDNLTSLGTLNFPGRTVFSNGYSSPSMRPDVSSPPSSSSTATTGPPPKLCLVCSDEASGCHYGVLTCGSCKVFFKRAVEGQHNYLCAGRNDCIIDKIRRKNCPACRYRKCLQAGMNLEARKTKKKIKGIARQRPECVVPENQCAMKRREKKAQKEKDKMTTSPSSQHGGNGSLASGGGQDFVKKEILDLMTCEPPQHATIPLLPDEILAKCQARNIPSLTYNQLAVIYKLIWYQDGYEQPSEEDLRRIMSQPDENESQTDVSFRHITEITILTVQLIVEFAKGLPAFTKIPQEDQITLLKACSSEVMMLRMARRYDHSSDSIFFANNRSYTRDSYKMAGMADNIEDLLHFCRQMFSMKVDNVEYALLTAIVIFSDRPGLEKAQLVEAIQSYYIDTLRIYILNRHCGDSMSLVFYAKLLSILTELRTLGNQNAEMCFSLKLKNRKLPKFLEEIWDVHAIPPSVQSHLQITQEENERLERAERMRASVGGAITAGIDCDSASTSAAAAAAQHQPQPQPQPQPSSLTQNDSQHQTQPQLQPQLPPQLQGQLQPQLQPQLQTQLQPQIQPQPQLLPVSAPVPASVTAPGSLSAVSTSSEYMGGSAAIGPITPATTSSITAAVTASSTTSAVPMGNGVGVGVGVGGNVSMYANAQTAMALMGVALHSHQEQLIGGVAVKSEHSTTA

With `CC(C)(O)CC[C@@H](O)[C@](C)(O)[C@H]1CC[C@@]2(O)C3=CC(=O)[C@@H]4C[C@@H](O)[C@@H](O)C[C@]4(C)[C@H]3CC[C@]12C` [20-hydroxyecdysone] as the compound, how does the “activity of chimeric receptor as homodimer” value [1] read?
Its value is “not responsive”.

For `CC(C)(C)N(NC(=O)c1ccccc1)C(=O)c1ccccc1` [RH5849, 1,2-dibenzoyl, 1-tert-butyl hydrazide], which “chemical induced reporter gene activity / induced levels of expression” value [2] is on record?
The value was “no chemical induced reporter gene activity”.
